Assay results reported in ChEMBL document CHEMBL1140367, “Discovery and activity of (1R,4S,6R)-N-[(1R)-2-[4-cyclohexyl-4-[[(1,1-dimethylethyl)amino]carbonyl]-1-piperidinyl]-1-[(4-fluorophenyl)methyl]-2-oxoethyl]-2-methyl-2-azabicyclo[2.2.2]octane-6-carboxamide (3, RY764), a potent and selective melanocortin subtype-4 receptor agonist” (Bioorg Med Chem Lett, 2005).
Blank lines part the entries; values can stand above or below the molecule they belong to.

Assays:
[1] = target: T1, Melanocortin receptor 5 (Homo sapiens, UniProt P33032); assay: Inhibition concentration (binding affinity) against human melanocortin receptor 5 by displacement of [125I]NDP-alpha-MSH from the human receptors expressed in CHO cells; format: cell-based
[2] = target: T2, Melanocortin receptor 4 (Homo sapiens, UniProt P32245); assay: Inhibition concentration (binding affinity) against human melanocortin receptor 4 by displacement of [125I]NDP-alpha-MSH from the human receptors expressed in CHO cells; format: cell-based
[3] = target: T3, Melanocortin receptor 3 (Homo sapiens, UniProt P41968); assay: Inhibition concentration (binding affinity) against human melanocortin receptor 3 by displacement of [125I]NDP-alpha-MSH from the human receptors expressed in CHO cells; format: cell-based
[4] = target: T2, Melanocortin receptor 4; assay: Inhibition concentration (binding affinity) exhibited against human melanocortin receptor 4 by radio labeled ligand assay (Displacement of [125I]NDP-alpha-MSH from the human receptors expressed in CHO cells); format: functional, cell-based
[5] = target: T1, Melanocortin receptor 5; conditions: 10 uM
[6] = target: T3, Melanocortin receptor 3; assay: Percentage of cAMP accumulation at 10 uM compound relative to alpha-MSH for melanocortin receptor 3; format: functional
[7] = target: T1, Melanocortin receptor 5; assay: Inhibition concentration (binding affinity) exhibited against human melanocortin receptor 5 by radio labeled ligand assay (Displacement of [125I]NDP-alpha-MSH from the human receptors expressed in CHO cells); format: functional, cell-based
[8] = target: T2, Melanocortin receptor 4; assay: Effective concentration (binding affinity) exhibited against human melanocortin receptor 4 by radio labeled ligand assay (Displacement of [125I]NDP-alpha-MSH from the human receptors expressed in CHO cells); format: functional, cell-based
[9] = target: T3, Melanocortin receptor 3; assay: Percentage of cAMP accumulation at 10 uM compound relative to alpha-MSH in hMC3R; format: functional
[10] = target: T4, Adrenocorticotropic hormone receptor (Homo sapiens, UniProt Q01718); conditions: 10 uM
[11] = target: T5, Melanocortin receptor 4 (Mus musculus, UniProt P56450); assay: Inhibition concentration (binding affinity) against mouse melanocortin receptor 4 by displacement of [125I]NDP-alpha-MSH from the human receptors expressed in CHO cells; format: cell-based
[12] = Clearance in beagles as a solution in water at 0.5 mg/kg, iv and 2.0 mg/kg, po.; format: ADME, organism-based, Canis lupus familiaris; conditions: beagle, dog, in vivo
[13] = target: T6, Melanocortin receptor 4 (Rattus norvegicus, UniProt P70596); assay: Inhibition concentration (binding affinity) against rat melanocortin receptor 4 by displacement of [125I]NDP-alpha-MSH from the human receptors expressed in CHO cells; format: cell-based
[14] = target: Melanocyte-stimulating hormone receptor (Homo sapiens, UniProt Q01726); assay: Inhibition concentration (binding affinity) against human melanocortin receptor 1 by displacement of [125I]NDP-alpha-MSH from the human receptors expressed in CHO cells; format: cell-based
[15] = Half life in rhesus as a solution in water at 0.5 mg/kg, iv and 2 mg/kg po.; format: ADME, organism-based; conditions: cercopithecidae, in vivo
[16] = Bioavailability in beagles as a solution in water at 0.5 mg/kg, iv and 2.0 mg/kg, po.; format: ADME, organism-based, Canis lupus familiaris; conditions: beagle, dog, in vivo
[17] = Volume of distribution in rhesus as a solution in water at 0.5 mg/kg, iv and 2 mg/kg po.; format: ADME, organism-based; conditions: cercopithecidae, in vivo, read-out: Vdss
[18] = target: T1, Melanocortin receptor 5; assay: Concentration of compound at 50% maximum cAMP accumulation in human melanocortin receptor (hMC5R); format: functional
[19] = Half life in beagles as a solution in water at 0.5 mg/kg, iv and 2.0 mg/kg, po.; format: ADME, organism-based, Canis lupus familiaris; conditions: beagle, dog, in vivo
[20] = target: T5, Melanocortin receptor 4; assay: Concentration of compound at 50% maximum cAMP accumulation in mouse melanocortin receptor (mMC4R); format: functional
[21] = Volume of distribution in Sprague Dawley rats as a solution in water at 1 mg/kg, iv and 20 mg/kg, po.; format: ADME, organism-based; conditions: rat, in vivo, read-out: Vdss
[22] = target: T6, Melanocortin receptor 4; assay: Concentration of compound at 50% maximum cAMP accumulation in rat melanocortin receptor (rMC4R); format: functional
[23] = […] in rhesus as a solution in water at 0.5 mg/kg, iv and 2 mg/kg po.; format: organism-based; conditions: cercopithecidae, in vivo
[24] = Cmax value in rhesus as a solution in water at 0.5 mg/kg, iv and 2 mg/kg po.; format: ADME, organism-based; conditions: cercopithecidae, in vivo
[25] = Bioavailability in rhesus as a solution in water at 0.5 mg/kg, iv and 2 mg/kg po.; format: ADME, organism-based, Macaca mulatta; conditions: rhesus monkey, in vivo
[26] = Cmax value in Sprague Dawley rats as a solution in water at 1 mg/kg, iv and 20 mg/kg, po.; format: ADME, organism-based; conditions: rat, in vivo
[27] = Clearance in rhesus as a solution in water at 0.5 mg/kg, iv and 2 mg/kg po.; format: ADME, organism-based; conditions: cercopithecidae, in vivo
[28] = Half life in Sprague Dawley rats as a solution in water at 1 mg/kg, iv and 20 mg/kg, po.; format: ADME, organism-based; conditions: rat, in vivo
[29] = target: T2, Melanocortin receptor 4; assay: Concentration of compound at 50% maximum cAMP accumulation in human melanocortin receptor (hMC4R); format: functional
[30] = target: T4, Adrenocorticotropic hormone receptor; assay: Inhibition concentration (binding affinity) against human melanocortin receptor 2 by displacement of [125I]NDP-alpha-MSH from the human receptors expressed in CHO cells; format: cell-based
[31] = Clearance in Sprague Dawley rats as a solution in water at 1 mg/kg, iv and 20 mg/kg, po.; format: ADME, organism-based; conditions: rat, in vivo
[32] = […] in Sprague Dawley rats as a solution in water at 1 mg/kg, iv and 20 mg/kg, po.; format: organism-based; conditions: rat, in vivo
[33] = Bioavailability in Sprague Dawley rats as a solution in water at 1 mg/kg, iv and 20 mg/kg, po.; format: ADME, organism-based; conditions: rat, in vivo
[34] = Volume of distribution in beagles as a solution in water at 0.5 mg/kg, iv and 2.0 mg/kg, po.; format: ADME, organism-based, Canis lupus familiaris; conditions: beagle, dog, in vivo, read-out: Vdss
[35] = […] in beagles as a solution in water at 0.5 mg/kg, iv and 2.0 mg/kg, po.; format: organism-based, Canis lupus familiaris; conditions: beagle, dog, in vivo
[36] = Cmax value in beagles as a solution in water at 0.5 mg/kg, iv and 2.0 mg/kg, po.; format: ADME, organism-based, Canis lupus familiaris; conditions: beagle, dog, in vivo

T1 sequence (P33032 whole entry): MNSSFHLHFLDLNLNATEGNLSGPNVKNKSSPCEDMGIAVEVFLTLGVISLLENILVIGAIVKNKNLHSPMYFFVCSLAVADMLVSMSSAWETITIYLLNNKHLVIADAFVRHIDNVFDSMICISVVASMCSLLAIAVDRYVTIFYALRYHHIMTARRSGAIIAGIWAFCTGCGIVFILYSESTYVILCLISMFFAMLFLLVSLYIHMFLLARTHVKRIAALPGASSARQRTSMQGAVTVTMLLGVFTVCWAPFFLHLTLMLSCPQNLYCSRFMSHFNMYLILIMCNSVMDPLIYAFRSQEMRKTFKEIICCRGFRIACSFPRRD
T3 sequence (P41968 whole entry): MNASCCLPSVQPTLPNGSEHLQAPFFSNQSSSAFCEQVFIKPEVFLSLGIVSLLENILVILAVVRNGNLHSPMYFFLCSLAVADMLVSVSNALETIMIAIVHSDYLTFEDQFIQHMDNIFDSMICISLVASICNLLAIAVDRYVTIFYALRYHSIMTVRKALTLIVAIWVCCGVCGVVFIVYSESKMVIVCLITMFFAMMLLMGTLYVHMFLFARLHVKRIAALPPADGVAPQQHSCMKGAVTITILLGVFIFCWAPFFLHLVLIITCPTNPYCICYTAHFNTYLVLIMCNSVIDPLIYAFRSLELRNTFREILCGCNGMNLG
T2 sequence (P32245 whole entry): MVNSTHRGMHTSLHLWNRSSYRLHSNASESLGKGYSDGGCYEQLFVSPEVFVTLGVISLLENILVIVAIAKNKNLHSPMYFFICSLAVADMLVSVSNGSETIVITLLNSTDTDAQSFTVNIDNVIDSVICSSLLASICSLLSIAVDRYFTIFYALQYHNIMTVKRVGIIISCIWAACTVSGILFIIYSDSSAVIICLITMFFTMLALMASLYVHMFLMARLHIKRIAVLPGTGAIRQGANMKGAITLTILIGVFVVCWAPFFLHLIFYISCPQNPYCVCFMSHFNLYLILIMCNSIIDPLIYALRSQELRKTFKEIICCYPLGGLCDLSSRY
T6 sequence (P70596 whole entry): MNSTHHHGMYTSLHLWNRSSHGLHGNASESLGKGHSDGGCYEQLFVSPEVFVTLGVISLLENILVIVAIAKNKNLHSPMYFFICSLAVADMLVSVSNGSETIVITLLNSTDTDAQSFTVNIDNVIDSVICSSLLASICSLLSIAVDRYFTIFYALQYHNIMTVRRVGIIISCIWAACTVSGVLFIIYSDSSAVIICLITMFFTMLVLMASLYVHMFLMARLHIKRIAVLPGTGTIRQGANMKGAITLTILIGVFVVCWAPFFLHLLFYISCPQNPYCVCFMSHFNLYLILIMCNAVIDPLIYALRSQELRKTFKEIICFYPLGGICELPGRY
T5 sequence (P56450 whole entry): as the sequence (P70596 whole entry) above, with H21Y, S36P, T199S, A239T, P329S, G330S counted along it
T4 sequence (Q01718 whole entry): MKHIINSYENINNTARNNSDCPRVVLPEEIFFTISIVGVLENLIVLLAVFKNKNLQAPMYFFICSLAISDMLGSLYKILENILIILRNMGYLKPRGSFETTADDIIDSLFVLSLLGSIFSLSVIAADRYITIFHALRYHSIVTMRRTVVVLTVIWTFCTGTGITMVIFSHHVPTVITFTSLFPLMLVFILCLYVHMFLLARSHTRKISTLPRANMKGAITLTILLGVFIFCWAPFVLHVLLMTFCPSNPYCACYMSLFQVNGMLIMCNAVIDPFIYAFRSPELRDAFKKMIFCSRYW
Chain of Melanocyte-stimulating hormone receptor (Q01726 whole entry): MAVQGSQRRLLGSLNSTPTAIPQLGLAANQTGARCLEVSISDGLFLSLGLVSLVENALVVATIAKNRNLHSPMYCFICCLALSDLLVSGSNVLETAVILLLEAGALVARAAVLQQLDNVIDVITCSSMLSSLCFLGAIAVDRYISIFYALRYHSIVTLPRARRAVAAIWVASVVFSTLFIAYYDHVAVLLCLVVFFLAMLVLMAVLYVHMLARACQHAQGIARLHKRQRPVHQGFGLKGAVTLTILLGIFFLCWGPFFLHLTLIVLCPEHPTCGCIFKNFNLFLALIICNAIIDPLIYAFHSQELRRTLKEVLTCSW

IC50 [1]: 1.08 µM
IC50 [2]: 0.006 µM
IC50 [3]: 0.41 µM
EC50 [4]: 0.034 µM
Max [5]: 5%
Max [6]: 4%
Compound: CN1C[C@@H]2CC[C@H]1[C@@H](C(=O)N[C@H](Cc1ccc(F)cc1)C(=O)N1CCC(C(=O)NC(C)(C)C)(C3CCCCC3)CC1)C2

EC50 [7]: 0.85 µM
IC50 [1]: 6.46 µM
IC50 [2]: 0.028 µM
IC50 [3]: 1.35 µM
EC50 [8]: 0.165 µM
Max [5]: 14%
Max [6]: 5%
Compound: CN1C[C@H]2CC[C@@H]1[C@@H](C(=O)N[C@H](Cc1ccc(F)cc1)C(=O)N1CCC(C(=O)NC(C)(C)C)(C3CCCCC3)CC1)C2

Activation [9]: 8%
Activation [10]: 2%
IC50 [11]: 3 µM
clearance [12]: 0.396 L/h/kg
IC50 [13]: 3 µM
IC50 [14]: 0.75 µM
half-life [15]: 4.6 h
bioavailability [16]: 50%
Vd [17]: 0.8 L/kg
EC50 [18]: 0.85 µM
half-life [19]: 4.9 h
EC50 [20]: 6 µM
Vd [21]: 9.6 L/kg
EC50 [22]: 5 µM
Cmax [24]: 0.85 µM
bioavailability [25]: 16%
Cmax [26]: 0.87 µM
clearance [27]: 0.204 L/h/kg
half-life [28]: 3.2 h
EC50 [29]: 11 µM
IC50 [30]: > 10 µM
clearance [31]: 2.81 L/h/kg
bioavailability [33]: 32%
Max [5]: 33%
Vd [34]: 2.3 L/kg
Max [6]: 8%
Cmax [36]: 0.91 µM
Compound: CN1C[C@H]2CC[C@@H]1[C@H](C(=O)N[C@H](Cc1ccc(F)cc1)C(=O)N1CCC(C(=O)NC(C)(C)C)(C3CCCCC3)CC1)C2
Tmax [23]: 1.3 h
Tmax [32]: 3 h
Tmax [35]: 1.1 h

More lines, now with the values behind:

Compound: CC(C)(C)NC(=O)C1(C2CCCCC2)CCN(C(=O)[C@@H](Cc2ccc(F)cc2)NC(=O)[C@H]2C[C@@H]3CC[C@@H]2NC3)CC1
IC50 [1]: 1.02 µM
IC50 [2]: 0.014 µM
IC50 [3]: 0.62 µM
EC50 [4]: 0.052 µM
Max [5]: 3%
pMax [6]: 3%

Compound: CC(C)(C)NC(=O)C1(C2CCCCC2)CCN(C(=O)[C@@H](Cc2ccc(F)cc2)NC(=O)C2CC3CCC2NC3)CC1 (single isomer, unassigned)
IC50 [1]: 0.94 µM
IC50 [2]: 0.016 µM
IC50 [3]: 0.62 µM
EC50 [4]: 0.02 µM
Max [5]: 11%
Max [6]: 4%

Compound: CC(C)(C)NC(=O)C1(C2CCCCC2)CCN(C(=O)[C@@H](Cc2ccc(F)cc2)NC(=O)[C@H]2C[C@H]3CC[C@@H]2NC3)CC1
EC50 [7]: 1.98 µM
IC50 [1]: 9.87 µM
IC50 [2]: 0.041 µM
IC50 [3]: 2.06 µM
EC50 [4]: 0.238 µM
Max [5]: 26%
Max [6]: 10%
